Patent US10398315B2, “Method of imaging living tissue” (Agency for Science, Technology and Research, priority 2013, dated 2019)
“Also recorded” adds a separate entry of the source.

Columns and labels:
[1] = MSOT phantom measurement of photoacoustic signal; format: physicochemical; settings: 680-900 nm; for Relative PA Quantum yield (ϕP): gradient of unmixed PA signal vs concentration in phantom, arbitrary ratios; for PA signal / photoacoustic activity in phantoms: phantom, compared among the 5 photosensitizers
Procedure: In order to verify the PA activity of the photosensitizers under controlled conditions, phantom measurements for all the contrast agents were performed, in the 680-900 nm wavelength range, each at 5 different concentrations.
All phantom and in vivo mouse imaging experiments were performed using a real-time multispectral optacoustic tomographic (MSOT) imaging system; inVision 128 (iThera Medical GmbH, Neuherberg, Germany).
The phantom was made of polyurethane, cylindrical in shape with a diameter of 2 cm, which was specially designed to mimic the shape, size and optical properties of the mouse (iThera Medical GmbH, Neuherberg, Germany). In addition, it had 2 inner cylindrical channels, each with diameter of 3 mm, one for holding the control medium and the other for holding the dissolved contrast agent in the same medium, to measure PA signal compared to the control medium, as shown in FIG. 2A.
Optical excitation was provided by an optical parametric oscillator (OPO) with a tunable near infra-red (NIR) wavelength range from 680 nm to 980 nm, which is in turn pumped by a Q-switched Nd:YAG laser with a pulse duration of 10 ns and repetition rate of 10 Hz. Light was delivered by a fiber bundle divided into 10 output arms to illuminate the sample from multiple angles around the imaging plane.
Photoacoustic (PA) signals were acquired using a 128-element concave transducer array spanning a circular arc of 270°. […] One transverse image slice was acquired from each laser pulse, resulting in a frame-rate of 10 Hz.
During image acquisition, the sample is translated through the transducer array along its axis across the volume ROI, in order to capture the corresponding transverse image slices. Data from multiple transverse slices across the channel portion which contains the probe and control were recorded. Excitation wavelength scan from 680 to 900 nm with an interval of 10 nm for each transverse slice was applied, and the averaged PA signals from 10 frames for each wavelength and position were recorded.
In addition, PA signal for each contrast agent was spectrally unmixed via linear regression. This allowed isolation of the individual contribution of the contrast agent of interest that may be plotted as a function of concentration, which in turn was used to produce a straight line of best fit based on least-squares regression, for each contrast agent.
This gradient was thereby defined by the inventors as a form of relative PA quantum yield (ϕP), a kind of measure of the efficiency of the conversion of light absorption into photoacoustic signal. This is analogous to fluorescence quantum yield (ϕ), which measures efficiency of the conversion of light absorption into fluorescence emission.
The numbers shown are not absolute values, but arbitrary ratios, which reflect the relative PA strength of one compound against that of another.

[2] = Concentration of drug in the blood calculated from pre-clinical in vivo dose from literature; settings: assuming volume of blood in mice 2 ml
[3] = literature value; cited from earlier work
[4] = literature value; cited from earlier work; remark: listed apart in the source
[5] = UV absorbance measurement 680-900 nm; format: physicochemical; settings: 680 nm to 900 nm, normalized absorbance, compared among the 5 photosensitizers
Procedure: In order to obtain information about optical absorption properties of the contrast agents, their wavelength-dependent absorption spectra at known concentrations were measured using a spectrophotometer.
In the experiments carried out, wavelength-dependent absorption spectrum of the contrast agents was measured from 680 nm to 900 nm using a spectrophotometer (DU 730, Beckman Coulter), which in turn was used as an input spectrum for multispectral post-processing of photoacoustic signals.
The spectra were normalized to obtain the concentration-independent normalized absorbance (directly proportional to extinction coefficient) as a function of wavelength for each contrast agent (FIG. 1), based on Beer-Lambert law: A(λ)=ln(Io/I)=ε(λ)cl
where A(λ) is the measured wavelength-dependent absorbance, I0 is the incident light intensity, I is the transmitted light intensity, ε(2) is the wavelength-dependent extinction coefficient of the contrast agent, c is the concentration of the contrast agent and l is the path length of the quartz cuvette (1 cm).

[6] = In vivo longitudinal MSOT monitoring of probe biodistribution in mouse xenograft model; settings: 0.21 mg/kg tail vein; for time of peak accumulation post injection: tumor site and organs
Procedure: For in vivo imaging, ultrasound gel was applied on the mouse skin surface, and measurements were recorded in temperature-controlled water for good acoustic coupling. An animal holder with a thin polyethylene membrane was used to prevent direct contact between the mouse and the water.
Xenograft mice models were established by injecting subcutaneously into the right flank of mouse, 0.2 mL of cell suspension containing about 5×10^6 to 6×10^6 MCF-7, a human metastatic breast cancer cell line or OSCC, a human oral squamous carcinoma cell line and matrigel (BD biosciences) in 1:1 volume ratio. When the tumor volume reached a palpable size, the mouse was used for in vivo PA imaging.
ZnPc at a dosage of 0.21 mg/kg was injected via a catheter into the tail vein of a subcutaneous tumor bearing mice anaesthetized under isoflurane and the probe biodistribution or uptake was monitored over time in various organs of liver, spleen, kidneys, intestines and tumor using photoacoustic imaging. Before image acquisition, a volume ROI consisting of transverse slices with a step size of 0.3 mm spanning from the liver to the lower abdomen was selected by manual inspection of live MSOT images, and the 6 laser excitation wavelengths of 680, 700, 750, 800, 850 and 900 nm were selected for correspondence with the major turning points in the absorption spectra of ZnPc, oxy-haemoglobin and deoxy-haemoglobin. Multispectral imaging was then performed with 10 signal averages per wavelength per transverse slice, before injection, during injection and 1, 3, 5, and 24 hr post-injection.
Images were reconstructed using a model-based approach as discussed in Rosenthal, A. et al. (Rosenthal, A. et al., Fast semi-analytical model-based acoustic inversion for quantitative optoacoustic tomography. IEEE Trans. Med. Imag. 29, 1275-1285 (2010)) for offline analysis. After image reconstruction, spectral unmixing was performed to resolve individual components from different chromophores in the system. For each pixel in the image, the method fits the total measured optoacoustic spectrum to the known absorption spectra of the individual chromophores, based on least-squares linear regression.
A volume ROI consisting of transverse slices spanning from the liver to the lower abdomen was scanned, and maximum intensity projections (MIPs) based on these slices were constructed for image analysis.
For the later time points, this background subtraction was not possible, as the animal was removed and placed in the MSOT system repeatedly, with repositioning, in order to avoid overdosage of isoflurane for the entire 24-hour duration.

Compound	Relative PA Quantum yield (ϕP) [1]	Concentration of drug in the blood [2] [µM]	tmax, time of peak concentrations ([6]; MIPs t=10 to 60 mins) [h]	time to clearance ([6]; MSOT signal) [h]	time of peak tumor-to-muscle ratio of MSOT signal ([6]; n=4) [h]	time to localization at the tumor post injection ([6]; tumor bearing mice) [min]	time of peak accumulation post injection [6] [h]	time of peak accumulation post injection ([6]; listed as zinc phthalocyanine)	Fluorescence Quantum Yield (ϕF) [3]	Singlet Oxygen Quantum Yield (ϕΔ) [4]	Relative PA Quantum yield (ϕP) ([1]; listed as zinc pthalocyanine)	PA signal / photoacoustic activity in phantoms [1]	PA signal / photoacoustic activity in phantoms ([1]; listed as zinc phthalocyanine)	PA signal / photoacoustic activity in phantoms ([1]; listed as zinc pthalocyanine)	overall absorbance in the NIR region [5]	organ biodistribution of MSOT signal ([6]; liver, spleen, kidneys, intestines, tumor)
chlorin e6 [Ce6]	0.036	41.90	–	–	–	–	–	–	0.19 [23]	0.65 [23]	–	–	–	–	–	–
O=C1C(=C2C(O)=CC(=[N+](Cc3ccccc3)Cc3ccccc3)C=C2O)C([O-])=C1c1c(O)cc(N(Cc2ccccc2)Cc2ccccc2)cc1O [Sq, 2,4-bis[4-(N,N-dibenzylamino)-2,6-dihydroxyphenyl]squaraine]	0.18	181.40	–	–	–	–	–	–	0.037 [27]	0.61-0.74 [28]	–	–	–	–	–	–

The next lines start with results.

Relative PA Quantum yield (ϕP) [1]	Concentration of drug in the blood [2] [µM]	tmax, time of peak concentrations ([6]; MIPs t=10 to 60 mins) [h]	time to clearance ([6]; MSOT signal) [h]	time of peak tumor-to-muscle ratio of MSOT signal ([6]; n=4) [h]	time to localization at the tumor post injection ([6]; tumor bearing mice) [min]	time of peak accumulation post injection [6] [h]	time of peak accumulation post injection ([6]; listed as zinc phthalocyanine)	Compound	Fluorescence Quantum Yield (ϕF) [3]	Singlet Oxygen Quantum Yield (ϕΔ) [4]	Relative PA Quantum yield (ϕP) ([1]; listed as zinc pthalocyanine)	PA signal / photoacoustic activity in phantoms [1]	PA signal / photoacoustic activity in phantoms ([1]; listed as zinc phthalocyanine)	PA signal / photoacoustic activity in phantoms ([1]; listed as zinc pthalocyanine)	overall absorbance in the NIR region [5]	organ biodistribution of MSOT signal ([6]; liver, spleen, kidneys, intestines, tumor)
–	88.88	–	–	–	–	–	–	C=CC1=C(C)c2cc3[nH]c(cc4nc(cc5[nH]c(cc1n2)c(C)c5CCC(=O)O)C(CCC(=O)O)=C4C)c(C)c3C=C [PpIX, protoporphyrin IX]	–	–	–	–	–	–	–	–
–	3.63	1	≤ 24	1	≤ 10	1	around 1 hour	[Zn+2].c1ccc2c(c1)-c1nc-2nc2[n-]c(nc3nc([n-]c4nc(n1)-c1ccccc1-4)-c1ccccc1-3)c1ccccc21 [ZnPc, zinc phthalocyanine]	0.06 [23]	0.62 [23]	highest relative photoacoustic quantum yield	strongest PA signal in phantoms	highest photoacoustic activity	strongest photoacoustic signal	highest overall absorbance	strong in vivo MSOT signal of ZnPc was detected in the reticuloendothelial system (liver, spleen), intestines and tumor site within the first hour after injection; also recorded: high concentrations were found in the liver and intestines up to the 3-hour time point, whereas renal signal was much weaker in comparison
0.029	1337.00	–	–	–	–	–	–	CN(C)c1ccc2nc3ccc(=[N+](C)C)cc-3sc2c1 [MB, methylene blue]	0.02 [23]	0.55 [23]	–	–	–	–	–	–
